Data as given in US11207296B2, “XPA inhibitor compounds and their use” (INDIANA UNIVERSITY RESEARCH AND TECHNOLOGY CORPORATION, priority 2017, dated 2021).

target: full length XPA protein (Homo sapiens, UniProt P23025); test: biochemical; settings: IC50 (μM), EMSA, 32P labeled 30 bp duplex DNA containing a single 1,2 dGpG cisplatin adduct, several values in a cell = separate determinations
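Also: XPA expressed in Sf9 cells, preincubated with compound on ice before adding DNA, complex resolved on native polyacrylamide gel at 4 °C, PhosphorImager band intensity, binding inhibition versus DMSO.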
Procedure: Purified XPA (lanes 2-18) was mixed with DMSO (Lane 2, C) control or the indicated compound at a concentration of 50 μM (Lanes 3-18). ^32P labeled ds-platinum damaged DNA was added and incubation continued for 30 minutes on ice. The products were separated on a 6% native gel by electrophoresis at 4° C. Products were detected and quantified by PhosphorImager analysis.
EMSA was carried out using previously described procedure with the following modification. Reactions were performed in volume of 20 μL, containing a ^32P labeled 30 bp duplex DNA containing a single 1,2 dGpG cisplatin adduct. Compounds were pre-incubated on ice with the indicated amount of XPA and products separated by electrophoresis on a non-denaturing 6% polyacrylamide gel. Gels were cooled, loaded and electrophoresis performed at 4° C. Gels were used to expose a Phosphorlmager screen and band intensity determined and % binding and inhibition calculated as we have previously described.

Chain of full length XPA protein (P23025 whole entry): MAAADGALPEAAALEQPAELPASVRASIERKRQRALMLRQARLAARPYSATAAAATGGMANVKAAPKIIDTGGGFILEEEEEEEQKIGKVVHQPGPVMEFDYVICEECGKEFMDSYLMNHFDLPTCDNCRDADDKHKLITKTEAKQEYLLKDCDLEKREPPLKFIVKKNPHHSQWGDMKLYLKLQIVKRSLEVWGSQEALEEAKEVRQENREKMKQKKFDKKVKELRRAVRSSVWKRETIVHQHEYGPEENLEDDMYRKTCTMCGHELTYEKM

Row | IC50 [µM] | SMILES
1 | 12 | COc1cccc(NC(=O)c2cc(-c3ccc(/C=C4\C(=O)N(c5ccc(C(=O)O)cc5)N=C4C)s3)ccc2Cl)c1 [NG-03-236, (Z)-4-(4-((5-(4-Chloro-3-((3-methoxyphenyl)carbamoyl)phenyl)thiophen-2-yl)methylene)-3-methyl-5-oxo-4,5-dihydro-1H-pyrazol-1-yl)benzoic acid]
2 | 40 | CCOC(=O)c1cccc(N2N=C(C(F)(F)F)/C(=C/c3ccc(-c4ccc(Cl)c(C(=O)O)c4)o3)C2=O)c1 [NG-04-300, 2-chloro-5-(5-((1-(3-(ethoxycarbonyl)phenyl)-5-oxo-3-(trifluoromethyl)-1,5-dihydro-4H-pyrazol-4-ylidene)methyl)furan-2-yl)benzoic acid]
3 | > 25 | COc1cccc(NC(=O)c2cc(-c3ccc(/C=C4\C(=O)N(c5cccc(C#N)c5)N=C4C)o3)ccc2Cl)c1 [NG-03-193, (Z)-2-chloro-5-(5-((1-(3-cyanophenyl)-3-methyl-5-oxo-1,5-dihydro-4H-pyrazol-4-ylidene)methyl)furan-2-yl)-N-(3-methoxyphenyl)benzamide]
4 | 30 | CC1=NN(c2cccc(C(=O)O)c2)C(=O)/C1=C\c1ccc(-c2ccc(Cl)c(C(=O)O)c2)s1 [NG-03-224, (Z)-5-(5-((1-(3-Carboxyphenyl)-3-methyl-5-oxo-1,5-dihydro-4H-pyrazol-4-ylidene)methyl)thiophen-2-yl)-2-chlorobenzoic acid]
